The values below come from EP2213286A1, “N-(PHENYL OR PYRIDYL)PRENYLAMINE DERIVATIVES FOR THE TREATMENT OF OBESITY, DIABETES AND CARDIOVASCULAR DISEASES” (Zeltia, S.A., priority 2009, dated 2010).

This experiment relates to adiponectin promoter. The experiment in a line: cells. The experiment is classed as cell-based, human. The conditions noted are these: for concentration at which the greatest transactivation was achieved: dose-response curve of commercial activator on the target promoter. An excerpt:
The following protocol has been followed for the purpose of analyzing the potential therapeutic activity against obesity, type 2 diabetes mellitus and atherosclerosis (ODA metabolic diseases) of the compounds 1-4: • generating cell lines which have stably integrated human promoters of key genes in the development of ODA diseases; • amplifying the human promoter sequence of the target genes starting from commercial human genomic DNA; • cloning the promoter into a suitable vector which allows knowing the transcriptional activity of the promoter sequence, using the luciferase gene as a reporter gene; • generating stable cell lines for each of the promoters cloned into the reporter vectors; • carrying out the screening test with the compounds of the invention on the stable cell lines; • suitably validating the effect obtained with a certain compound which can modify the transcriptional activity of the promoter.
The selected cell line is C2C12, corresponding to myoblasts from mouse muscle tissue.
The luciferase activity is measured according to the following protocol: • a) 50000 and 1200000 cells/well (and in duplicate) are seeded in a P24 plate. • b) After approximately 24 hours, the medium is removed from the cells and each well is washed with PBS 1x (because DMEM interferes in the measurement of the activity of the reporter gene) • c) 100 µl of luciferase developing reagent are added in each cell (Bright-GloTM Luciferase Assay system- Promega). This reagent carries the reporter gene substrate and luminescence is generated as the product of the enzymatic reaction. The cells which have acquired the reporter gene, and therefore the target promoter, will be luminescent upon being in the presence of said substrate. To record the measurement of luciferase activity, the plate is shaken for 30 seconds right after adding the developing reagent and after 2 minutes, the volume is collected and transferred to a 96-well plate (P96), which can be read in an illuminometer. • d) The suitable luminescence program is selected, such that the reading lasts 5 seconds per well, and the arbitrary luminescence units are recorded for each obtained clone or, in other words, for each stable cell line.
The reaction substrate is photosensitive, therefore it is important to keep the plate in darkness from the time the reagent is added until the luciferase activity is recorded or read in each experiment. Carrying out the screening test: The clones used in the screening are: C2C12 Adipo (adiponectin promoter), C2C12 UCP3 (UCP3 promoter), C2C12 AdR1 (adiponectin receptor 1 promoter) and C2C12 Nmu (neuromedin promoter).
Before any screening experiment, the suitable number of cells for carrying out such experiments must first be provided. To that end, 2 T75 are usually seeded (with approximately 1x10^6 cells in each bottle), such that after four days, the cells have reached confluence and are ready for the screening protocol detailed below to be carried out. • 1. Day 1: 30000 cells per well are seeded in white P96 plates; these plates allow amplifying the luminescence signal and improving the reading. The cells are grown in 100 µl of hygromycin-free medium. • 2. Day 2: 24 hours after the seeding, the cells are stimulated with compounds 1-4. Compounds 1-4 are assayed in duplicate at 1, 5 and 10 µg/ml concentrations, by means of the screening method shown in the following diagram: [formula] ? In the indicated positions, the baseline transcriptional activity of the promoters to be studied is recorded in the presence of the medium in which compounds 1-4 (vehicle) are dissolved. ? In the indicated positions, the transcriptional activity of the promoters to be studied is recorded in the presence of a known commercial activator of the target promoter. […]

[1] abbreviates: Mus musculus, C2C12, 48 h, read-out: activation ratio.

For the compound `COC(=O)c1ccnc(NCC=C(C)CCC=C(C)C)c1` [Compound 1, 2-(3,7-dimethyl-octa-2,6-dienylamino)-isonicotinic acid methyl ester], under setting [1], the fold induction at 0.5 µM amounted to 1.67, the fold induction at 1 µM is 2.02, the fold induction at 5 µM is 3.33 and the fold induction at 10 µM is 4.07. In addition, under setting [1], the fold induction at 25 µM was determined as 4.05, the fold induction at 50 µM is 3.92, the fold induction at 100 µM was 3.06 and the fold induction at 200 µM stood at 2.57.
As to `CC(C)=CCNc1cccc(C(=O)O)c1` [Compound 2, 3-(3-methyl-but-2-enylamino)-benzoic acid], under setting [1], the fold induction at 0.01 µM amounted to 1.05, the fold induction at 1 µM is 1.69, the fold induction at 5 µM was 2.78 and the fold induction at 15 µM worked out at 3.43. Moreover, under setting [1], the fold induction at 25 µM was found to be 3.57, the fold induction at 50 µM came to 3.66, the fold induction at 200 µM came out at 3.04 and the fold induction at 400 µM is 1.81.
On to `COC(=O)c1cccc(NCC=C(C)C)c1` [Compound 3, 3-(3-methyl-but-2-enylamino)-benzoic acid methyl ester], for which, under setting [1], the fold induction at 0.5 µM was found to be 1.07, the fold induction at 1 µM is 1.26, the fold induction at 5 µM is 1.98 and the fold induction at 10 µM stood at 1.85. For the same compound, under setting [1], the fold induction at 25 µM was found to be 2.46, the fold induction at 50 µM was 2.61, the fold induction at 100 µM was 2.34 and the fold induction at 200 µM was 1.92.
For `COC(=O)c1cccc(NCC=C(C)CCC=C(C)C)c1` [Compound 4, 3-(3,7-dimethyl-octa-2,6-dienylamino)-benzoic acid methyl ester], under setting [1], the fold induction at 0.5 µM amounted to 2.32, the fold induction at 1 µM came to 2.59, the fold induction at 5 µM is 3.53 and the fold induction at 10 µM worked out at 3.71. In addition, under setting [1], the fold induction at 25 µM stood at 3.47, the fold induction at 50 µM was determined as 3.28, the fold induction at 100 µM amounted to 2.53 and the fold induction at 200 µM was 1.78.
For `O=c1c(-c2ccc(O)cc2)coc2cc(O)ccc12` [Daidzein, daidzein, reference compound], the “concentration at which the greatest transactivation was achieved” value (shortened to “concentration”) worked out at 20 µM. For the same compound, under setting [1], the fold induction at 1 µM came out at 1.68, the fold induction at 5 µM turned out to be 3.03, the fold induction at 10 µM came out at 3.76 and the fold induction at 20 µM came out at 4.04. Also, under setting [1], the fold induction at 50 µM worked out at 4.05 and the fold induction at 100 µM is 3.71.
In the case of `O=c1c(-c2ccc(O)cc2)coc2cc(O)cc(O)c12` [Genistein, genistein, reference compound], the “concentration” value turned out to be 20 µM. Under setting [1], the fold induction at 1 µM was determined as 1.47, the fold induction at 5 µM was found to be 2.25, the fold induction at 10 µM came to 3.59 and the fold induction at 20 µM came out at 3.05. Under setting [1], the fold induction at 50 µM was 1.97, the fold induction at 100 µM stood at 1.75 and the fold induction at 200 µM came out at 1.59.
Consider `CN(CCOc1ccc(CC2SC(=O)NC2=O)cc1)c1ccccn1` (stereo not drawn) [Rosiglitazone, reference compound], for which the “concentration” value is recorded as 20 µM.
